From patent US6747027B1, “Thiol sulfonamide metalloprotease inhibitors” (Pharmacia Corporation, priority 1996, dated 2004)
pIC50: −log10 of the molar value.

Assays:
recombinant human MMP-13 = target: T1, recombinant human MMP-13 (Homo sapiens, UniProt P45452); test: In vitro metalloprotease inhibition, fluorogenic peptide assay (MMP-13); type: biochemical; conditions: recombinant human MMP-13, APMA activated; fluorogenic MCA peptide substrate 4 uM; pH 7.5, room temperature
T1 construct: made in house
Description: (§1) Certain of the compounds prepared in the manner described in Examples 1 to 223 were tested for activity by an in vitro assay. Following the procedures of Knight et al., FEBS Lett. 296(3):263 (1992). Briefly, 4-aminophenylmercuric acetate (APMA) or trypsin activated MMPs were incubated with various concentrations of the inhibitor compound at room temperature for 5 minutes (0.02% 2-mercapto-ethanol added to buffer for thiol compounds with 5 minutes or overnight incubation). More specifically, recombinant human MMP-13 and MMP-1 enzymes were prepared in laboratories of the inventors' employer. MMP-13 was expressed in baculovirus as a proenzyme, and purified first over a heparin agarose column and then over a chelating zinc chloride column. The proenzyme was activated by APMA for use in the assay. MMP-1 expressed in transfected HT-1080 was provided by Dr. Howard Welgus of Washington University, St. Louis, Mo. The enzyme was also activated using APMA and was then purified over a hydroxamic acid column.
(§2) The enzyme substrate is a methoxycoumarin-containing polypeptide having the following sequence:
(§3) MCA-ProLeuGlyLeuDpaAlaArgNH^2, wherein MCA is methoxycoumarin and Dpa is 3-(2,4-dinitrophenyl)-L-2,3-diaminopropionyl alanine. This substrate is commercially available from Baychem as product M-1895.
(§4) The buffer used for assays contained 100 mM Tris-HCl, 100 mM NaCl, 10 mM CaCl2 and 0.05 percent polyethyleneglycol(23) lauryl ether at a pH value of 7.5. Assays were carried out at room temperature, and dimethyl sulfoxide (DMSO) at a final concentration of 1 percent was used to dissolve inhibitor compound.
(§5) The assayed inhibitor compound in DMSO/buffer solution was compared to an equal amount of DMSO/buffer with no inhibitor as control using microfluor™ white plates (Dynatech). The inhibitor or control solution was maintained in the plate for 10 minutes and the substrate was added to provide a final concentration of 4 uM.
(§6) In the absence of inhibitor activity, a fluorogenic peptide is cleaved at the gly-leu peptide bond, separating the highly fluorogenic peptide from a 2.4-dinitrophenyl quencher, resulting in an increase of fluorescence intensity (excitation at 328 nm/emmision at 415 nm). Inhibition was measured as a reduction in fluorescent intensity as a function of inhibitor concentration, using a Perkin Elmer L550 plate reader. The IC50 values were calculated from those values. The results are set forth in the Inhibition Table below, reported in terms of IC50 to three significant figures.

recombinant human MMP-1 = target: T2, recombinant human MMP-1 (Homo sapiens, UniProt P03956); test: In vitro metalloprotease inhibition, fluorogenic peptide assay (MMP-1); type: biochemical; conditions: recombinant human MMP-1, APMA activated; fluorogenic MCA peptide substrate 4 uM; pH 7.5, room temperature
T2 construct: made in house; host or cells: transfected HT-1080 cells (provided by Dr. Howard Welgus, Washington University)
T2 sequence (P03956 100-469): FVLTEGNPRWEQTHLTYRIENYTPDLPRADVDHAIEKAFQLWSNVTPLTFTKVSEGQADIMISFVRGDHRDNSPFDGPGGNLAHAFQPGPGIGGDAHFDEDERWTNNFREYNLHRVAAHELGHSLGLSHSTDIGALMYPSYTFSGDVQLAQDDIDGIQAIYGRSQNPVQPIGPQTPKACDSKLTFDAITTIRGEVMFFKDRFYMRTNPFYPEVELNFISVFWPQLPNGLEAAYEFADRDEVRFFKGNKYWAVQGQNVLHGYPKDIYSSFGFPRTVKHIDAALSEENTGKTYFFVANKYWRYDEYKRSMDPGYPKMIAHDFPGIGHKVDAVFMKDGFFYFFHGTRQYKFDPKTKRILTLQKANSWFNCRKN
Description: as §1, §2, §3, §4, §5, §6

Molecule | pIC50 (recombinant human MMP-13) | pIC50 (recombinant human MMP-1)
CCCCCN([C@H](C)CS)S(=O)(=O)c1ccc(OCCCC)cc1 [Example 48C, N-(2-Mercapto-1R-methylethyl)-N-pentyl-4-(n-butoxy)benzenesulfonamide] | 7.35 | < 5.00
CCC(C)(C)c1ccc(S(=O)(=O)N[C@H](C)CS)cc1 [Example 193] | < 5.00 | < 5.00
C[C@H](CS)NS(=O)(=O)c1ccc(CNC(=O)c2ccc(Cl)cc2)s1 [Example 153] | < 5.00 | 
COc1ccc(S(=O)(=O)N(CCCS)Cc2ccccc2)cc1 [Example 97] | 5.40 | 
COC(=O)c1ccccc1S(=O)(=O)N[C@H](C)CS [Example 198] | 5.64 | 
N-(2-mercapto-1R-methylethyl)-2-napthylenesulfonamide [Example 83] | 5.94 | 
CCCCOc1ccc(S(=O)(=O)NC(CO)CS)cc1 (stereo not drawn) [Example 110] | 5.80 | < 5.00
Cc1cc(C)c(S(=O)(=O)N[C@H](C)CS)c(C)c1 [Example 79, N-(2-mercapto-1R-methylethyl)-2,4,6-trimethyl-benzenesulfonamide] | < 5.00 | 
C[C@H](CS)NS(=O)(=O)c1ccc(C(F)(F)F)cc1 [Example 73, N-(2-mercapto-1R-methylethyl)-4-(trifluoromethyl)-benzenesulfonamide] | 5.68 | 
C[C@H](CS)NS(=O)(=O)c1cn(C)cn1 [Example 214] | < 5.00 | 
C[C@H](CS)NS(=O)(=O)c1ccc(Cl)s1 [Example 86, N-(2-mercapto-1R-methylethyl)-5-chloro-2-thiophenesulfonamide] | 5.77 | 
C[C@H](CS)NS(=O)(=O)c1ccc(Br)cc1OC(F)(F)F [Example 204] | < 5.00 | 
C[C@H](CS)NS(=O)(=O)c1sc(Br)cc1Br [Example 87, N-(2-mercapto-1R-methylethyl)-3,5-dibromo-2-thiophenesulfonamide] | 5.07 | 
CCCCOc1ccc(S(=O)(=O)N[C@@H](CS)C(=O)O)cc1 [Example 210] | 5.88 | 
C[C@H](CS)NS(=O)(=O)c1ccc(F)c(F)c1 [Example 81, N-(2-mercapto-1R-methylethyl)-3,4-difluoro-benzenesulfonamide] | 5.19 | 
CC(C)c1ccc(S(=O)(=O)N[C@H](C)CS)cc1 [Example 72, N-(2-mercapto-1R-methylethyl)-4-isopropylbenzenesulfonamide] | 5.64 | 
COc1ccc(S(=O)(=O)N(CCCSC(C)=O)Cc2ccccc2)cc1 [Example 98] | < 5.00 | 

Molecule | pIC50 (recombinant human MMP-13) | pIC50 (recombinant human MMP-1)
N-(2-mercapto-1R-methylethyl)-4-(n-butyl)benzenesulfonamide [Example 69] | 6.76 | 
C[C@H](CS)NS(=O)(=O)c1ccc(OCC(F)(F)F)cc1OCC(F)(F)F [Example 104] | < 5.00 | 
C[C@H](CS)NS(=O)(=O)c1ccccc1 (single isomer, unassigned) [Example 151] | < 5.00 | 
C[C@H](CS)NS(=O)(=O)c1cccc2cccnc12 [Example 206] | < 5.00 | 
CC(C)c1cc(C(C)C)c(S(=O)(=O)N[C@H](C)CS)c(C(C)C)c1 [Example 80, N-(2-mercapto-1R-methylethyl)-2,4,6-triisopropyl-benzenesulfonamide] | < 5.00 | 
C[C@H](CS)NS(=O)(=O)c1cc(C(F)(F)F)n(C)n1 [Example 149] | < 5.00 | 
C[C@H](CS)NS(=O)(=O)c1ccc(C(C)(C)C)cc1 [Example 74, N-(2-mercapto-1R-methylethyl)-4-(t-butyl)benzenesulfonamide] | < 5.00 | 
C[C@H](CS)NS(=O)(=O)c1ccc(Br)s1 [Example 85, N-(2-mercapto-1R-methylethyl)-5-bromo-2-thiophenesulfonamide] | 5.05 | 
C[C@H](CS)NS(=O)(=O)c1ccccc1C(F)(F)F [Example 196] | < 5.00 | 
CCCCCCCCCCCCCCCCOc1ccc(S(=O)(=O)N[C@H](C)CS)cc1 [Example 105] | 5.46 | 
C[C@H](CS)NS(=O)(=O)c1ccc(C(F)(F)F)cn1 [Example 148] | < 5.00 | 
C[C@H](CS)NS(=O)(=O)c1ccc(CNC(=O)c2ccccc2)s1 [Example 146] | < 5.00 | 
N-(2-mercapto-1R-methylethyl)-2-(trifluoromethyoxy)-benzenesulfonamide [Example 77] | < 5.00 | 
CCCCOc1cc(C(C)(C)CC(C)(C)C)ccc1S(=O)(=O)N[C@H](C)CS [Example 207] | < 5.00 | 
COc1ccc(S(=O)(=O)N[C@H](C)CS)c([N+](=O)[O-])c1 [Example 109] | < 5.00 | 
CSc1nccc(S(=O)(=O)N[C@H](C)CS)n1 [Example 150] | 5.05 | 
C[C@H](CS)NS(=O)(=O)c1cc(Br)c(Cl)s1 [Example 152] | 5.52 | 

The remaining lines, values ahead:

pIC50 (recombinant human MMP-13) | pIC50 (recombinant human MMP-1) | Molecule
7.35 | < 5.00 | C[C@H](CS)N(CCN1CCCCC1)S(=O)(=O)CCCSc1ccccc1 [Example 52, N-(2-Mercapto-1R-methylethyl)-N-[2-(1-piperidino)ethyl](3-thiophenylpropyl)sulphonamide]
6.46 | < 5.00 | CC(=O)Nc1ccc(S(=O)(=O)N[C@@H](CS)C(N)=O)cc1 [Example 199]
7.34 | 5.97 | COc1ccc(S(=O)(=O)N(CC(C)C)[C@H](C)CS)cc1 [Example 14C, N-(2-Mercapto-1R-methylethyl)-N-(2-methylpropyl)-4-methoxybenzenesulfonamide]
7.50 | 6.05 | CCCCN([C@H](C)CS)S(=O)(=O)c1ccc(OC)cc1 [Example 99]
8.85 | 5.15 | NC(=O)[C@H](CS)N(CCN1CCOCC1)S(=O)(=O)c1ccc(NC(=O)c2ccc(Cl)cc2)cc1 [Example 220, N-(4-(4′-chlorobenzoyl)amino)phenylsulfonyl-N-(4-(morpholinoethyl))-L-cysteine amide]
7.77 | < 5.00 | C[C@H](CS)N(CC(=O)O)S(=O)(=O)c1ccc(Sc2ccccc2)cc1 [Example 103]
7.77 | < 5.00 | CCCCCc1ccc(S(=O)(=O)N[C@@H](CS)C(N)=O)cc1 [Example 96, N-[4-(n-Pentyl)-phenyl]sulfonyl-L-cysteine-NH2]
7.42 |  | C[C@H](CS)NS(=O)(=O)c1ccc(I)cc1 [Example 66, N-(2-mercapto-1R-methylethyl)-4-iodobenzenesulfonamide]
6.22 | 5.60 | COc1ccc(S(=O)(=O)N(Cc2ccccc2)[C@@H](CS)C(C)C)cc1 [Example 31D, N-[(1R-Mercaptomethyl)-2-methylpropyl]-4-methoxy-N-(phenylmethyl)benzenesulfonamide]
8.60 | 5.54 | CCCCOc1ccc(S(=O)(=O)N(CCN2CCOCC2)[C@@H](CS)C(=O)NC)cc1 [Example 176]
6.26 |  | COc1ccc(S(=O)(=O)N(Cc2ccccc2)CC(C)S)cc1 (stereo not drawn) [Example 10]
6.44 |  | C[C@H](CS)NS(=O)(=O)c1ccc(-c2ccon2)s1 [Example 88, N-(2-mercapto-1R-methylethyl)-5-(isoxazol-3-yl)-2-thiophenesulfonamide]
6.33 |  | CCc1cc(Br)ccc1S(=O)(=O)N[C@H](C)CS [Example 195]
6.30 |  | C[C@H](CS)NS(=O)(=O)c1ccc(Oc2cccc(Cl)c2C#N)cc1 [Example 108]
6.22 |  | C[C@H](CS)NS(=O)(=O)c1ccc2oc3ccccc3c2c1 [Example 90, N-(2-mercapto-1R-methylethyl)-2-dibenzofuransulfonamide]
6.24 |  | CCc1ccc(S(=O)(=O)N[C@H](C)CS)cc1 [Example 67, N-(2-mercapto-1R-methylethyl)-4-ethylbenzenesulfonamide]
6.05 |  | C[C@H](CS)NS(=O)(=O)c1ccc(Cl)cc1 [Example 64, N-(2-mercapto-1R-methylethyl)-4-chlorobenzenesulfonamide]
